From patent US11185549B2, “Combination of a PI3K-inhibitor with an androgen receptor antagonist” (priority 2017, dated 2021)
“And” between values parts separate entries of the source, which are not always exact repeats. Equal values may be shown once. Where a name gives a salt, the structure may show the parent alone. Read-outs that look alike come from different tables or passages of the source.

Assays:
[1] = tested on: VCaP human prostate cancer cells; test: VCaP proliferation assay (CellTiter-Glo), single agents and combination index; format: cell-based
Description: (§1) Cell lines derived from human prostate cancer metastasis were used (Table 1).
(§2) After one day, the cells were treated with R1881 (10 nM) and 1 nM to 10 μM compounds (day 0). Cell number was determined following addition of CellTiter-Glo® (Promega) at day 0 and day 6. Luminescence was determined in a Victor X3 device (PerkinElmer). The inhibition of cell growth was calculated by normalization with respect to the luminescence reading (cell number) measured at the end of the experiment for cells treated with R1881 alone compared to the fluorescence reading (cell number) measured at the end of the experiment for DMSO-treated cells. […] After one day, the cells were treated with R1881 (0.1 nM) and 1 nM to 10 μM compounds (day 0). Cell number was determined following addition of CellTiter-Glo® (Promega) at day 0 and day 6. Luminescence was determined in a Victor X3 device […]. The inhibition of cell growth was calculated by normalization with respect to the luminescence reading (cell number) measured at the end of the experiment for cells treated with R1881 alone compared to the fluorescence reading (cell number) measured at the start of the experiment for DMSO-treated cells.
(§3) The Combination Index (CI) was determined for the two compound ratios closest to the ratio of the respective IC50 values of each compound alone.

[2] = tested on: LAPC-4 human prostate cancer cells; test: LAPC-4 proliferation assay (CellTiter-Glo), single agents and combination index; format: cell-based
Description: as §1, §2, §3

PI3K isoforms = details: cited from earlier work
mTOR = mTOR (Homo sapiens, UniProt P42345); details: cited from earlier work
androgen receptor [3] = molecular target: androgen receptor (Homo sapiens, UniProt P10275); details: cited from earlier work
Sequence of androgen receptor (Homo sapiens, UniProt P10275) (P10275 whole entry, species assumed): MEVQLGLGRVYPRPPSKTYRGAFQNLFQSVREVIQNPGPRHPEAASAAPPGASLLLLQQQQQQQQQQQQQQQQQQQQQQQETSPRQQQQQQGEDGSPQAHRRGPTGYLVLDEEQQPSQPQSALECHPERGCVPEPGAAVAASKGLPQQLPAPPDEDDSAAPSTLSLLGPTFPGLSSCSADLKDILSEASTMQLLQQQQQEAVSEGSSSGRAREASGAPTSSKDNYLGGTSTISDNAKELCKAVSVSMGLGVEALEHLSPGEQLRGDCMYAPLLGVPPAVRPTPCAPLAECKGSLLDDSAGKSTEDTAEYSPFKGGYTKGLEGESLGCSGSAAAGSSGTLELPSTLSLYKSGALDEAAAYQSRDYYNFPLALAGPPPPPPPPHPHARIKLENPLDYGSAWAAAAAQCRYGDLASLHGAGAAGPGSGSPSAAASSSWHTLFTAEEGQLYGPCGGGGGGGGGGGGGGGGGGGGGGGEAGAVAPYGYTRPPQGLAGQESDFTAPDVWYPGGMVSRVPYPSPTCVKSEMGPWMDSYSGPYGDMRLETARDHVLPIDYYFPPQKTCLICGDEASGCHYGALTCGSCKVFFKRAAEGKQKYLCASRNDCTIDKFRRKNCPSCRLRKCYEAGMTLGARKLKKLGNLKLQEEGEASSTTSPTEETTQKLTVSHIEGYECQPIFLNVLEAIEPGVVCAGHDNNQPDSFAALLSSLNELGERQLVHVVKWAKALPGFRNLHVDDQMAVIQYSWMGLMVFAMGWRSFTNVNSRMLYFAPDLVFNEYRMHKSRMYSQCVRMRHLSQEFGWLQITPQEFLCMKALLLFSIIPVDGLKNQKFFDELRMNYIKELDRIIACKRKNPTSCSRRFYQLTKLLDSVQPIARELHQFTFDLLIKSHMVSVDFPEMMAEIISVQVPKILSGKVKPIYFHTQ

androgen receptor [4] = details: cited from earlier work
[5] = Homo sapiens, VCaP, 144 h, VCaP cells, single agent, R1881 0.1 nM, day 6, read-out: Compound A IC50
[6] = Homo sapiens, LAPC4, 144 h, LAPC-4 cells, single agent, R1881 10 nM, day 6, read-out: Compound A IC50

Row | SMILES | IC50 [1, 5] | IC50 [2, 6] | IC50 ([2]; LAPC-4 cells, single agent, R1881 10 nM, day 6, read-out: Compound A IC50) | activity against PI3K isoforms (PI3K isoforms) | activity against mTOR (mTOR) | IC50 ([1]; Homo sapiens, VCaP, 144 h, read-out: Compound B IC50, VCaP cells, single agent, R1881 0.1 nM, day 6) | IC50 ([1]; read-out: Compound B IC50, VCaP cells, single agent, R1881 0.1 nM, day 6) | IC50 ([2]; Homo sapiens, LAPC4, 144 h, read-out: Compound B IC50, LAPC-4 cells, single agent, R1881 10 nM, day 6) | IC50 ([2]; read-out: Compound B IC50, LAPC-4 cells, single agent, R1881 10 nM, day 6) | inhibition of transactivation function (androgen receptor [3]) | binding affinity for the androgen receptor (androgen receptor [4]) | IC50 ([2]; LAPC-4 cells, single agent, R1881 10 nM, day 6, dihydrochloride, read-out: Compound A IC50)
1 | Cc1c(CN2CCN(C(=O)[C@H](C)O)CC2)sc2c(N3CCOCC3)nc(-c3cnc(N)nc3)nc12 [Apitolisib] | 52 nM | 12 nM | 13 nM | low nanomolar | low nanomolar | – | – | – | – | – | – | –
2 | CC(O)c1cc(C(=O)N[C@@H](C)Cn2ccc(-c3ccc(C#N)c(Cl)c3)n2)[nH]n1 (some centres unmarked) [Darolutamide] | – | – | – | – | – | 350 nM | 417 nM and 557 nM | 263 nM | 366 nM | high inhibition | low nanomolar | –
3 | Cn1c(=O)n(-c2ccc(C(C)(C)C#N)cc2)c2c3cc(-c4cnc5ccccc5c4)ccc3ncc21 [Dactolisib] | 26 nM | – | – | low nanomolar | low nanomolar | – | – | – | – | – | – | –
4 | COc1c(OCCCN2CCOCC2)ccc2c1N=C(NC(=O)c1cnc(N)nc1)N1CCN=C21 [Copanlisib, 2-amino-N-[7-methoxy-8-(3-morpholin-4-ylpropoxy)-2,3-dihydroimidazo[1,2-c]quinazolin-5-yl]pyrimidine-5-carboxamide dihydrochloride] | 9 nM | 41 nM | – | – | – | – | – | – | – | – | – | 49 nM
